Biological target: wild-type human cardiac sodium channel, hNav1.5 (late sodium current) (Homo sapiens, UniProt Q14524)
Assay: Late INa screening assay (PatchXpress whole cell patch clamp)
Type: cell-based
Settings: HEK293 cells expressing hNav1.5, late INa generated with 10 μM Tefluthrin (some experiments 50 nM ATX II); for inhibition at 10 µM: HEK293, 10 μM test compound, read-out: Late INa % blk (10 μM test cmpd)
Experimental: The late sodium current (Late INa) and peak sodium current (Peak INa) assays were performed on an automated electrophysiology platform, PatchXpress 7000A (MDS Analytical Technologies, Sunnyvale, Calif.), which uses the whole cell patch clamp technique to measure currents through the cell membrane of up to 16 cells at a time. The assay used an HEK293 (human embryonic kidney) cell line heterologously expressing the wild-type human cardiac sodium channel, hNav1.5, purchased from Millipore (Billerica, Mass.). No beta subunits were coexpressed with the Na channel alpha subunit. Cells were maintained with standard tissue culture procedures and stable channel expression was maintained with 400 μg/ml Geneticin in the culture medium. Cells isolated for use on PatchXpress were incubated for 5 minutes in Versene 1× and then for 2 minutes in 0.0125% Trypsin-EDTA (both at 37° C.) to ensure that 80-90% of the cells are single and not part of a cell cluster. Experiments were carried out at 24-27° C.
For both the Late INa and Peak INa assays, series resistance compensation was set to 50% and whole-cell compensation was performed automatically. Currents were low-pass filtered at 10 kHz and digitized at 31.25 kHz. Currents through open sodium channels were automatically recorded and stored in the DataXpress2 database (MDS Analytical Technologies, Sunnyvale, Calif.). Analysis was performed using DataXpress2 analysis software and data are compiled in Excel.
Compound stocks were routinely made in glass vials to 10 mM in dimethyl sulfoxide (DMSO). In some cases, when compounds were not soluble in DMSO, they were made in 100% ethanol. Stocks were sonicated as necessary. The extracellular solution for screening Late INa was composed of: 140 mM NaCl, 4 mM KCl, 1.8 mM CaCl2, 0.75 mM MgCl2, and 5 mM HEPES with pH adjusted to 7.4 using NaOH. The extracellular solution for screening Peak INa was composed of: 20 mM NaCl, 120 mM N-methyl-D glucamine, 4 mM KCl, 1.8 mM CaCl2, 0.75 mM MgCl2, and 5 mM HEPES with pH adjusted to 7.4 using HCl. The intracellular solution used to perfuse the inside of the cells for both the Late INa and Peak INa assays contains: 120 mM CsF, 20 mM CsCl, 5 mM EGTA, 5 mM HEPES and pH adjusted to 7.4 with CsOH. Compounds were diluted in extracellular solution to 10 μM in glass vials and then transferred to glass well plates before robotic addition to the cells. The 0Na extracellular solution used at the end of each experiment for the Late INa and Peak INa assays to measure baseline current contained: 140 mM N-methyl-D-glucamine; 4 mM KCl; 1.8 mM CaCl2; 0.75 mM MgCl2; 5 mM HEPES and pH was adjusted to 7.4 with HCl.
For the Late INa assay, sodium channels were activated every 10 seconds (0.1 Hz) by depolarizing the cell membrane to −20 mV for 250 milliseconds (ms) from a holding potential of −120 mV. In response to a −20 mV voltage step, typical Nav1.5 sodium currents activated rapidly to a peak negative current and then inactivated nearly completely within 3-4 ms.
All compounds were tested to determine their activity in blocking the late sodium current. Late INa current is generated by adding 10 μM Tefluthrin (pyrethroid) to the extracellular solution while recording Na currents. For some experiments, 50 nM ATX II (sea anemone toxin), another late INa activator, was used to generate the late component. Both activators generate late components that are large enough that block of the late component by compounds can be measured easily. For the purposes of the screening, late INa is defined as the mean current between 225 ms and 250 ms after stepping to −20 mV to activate Na channels. After establishing the whole cell recording configuration, late INa activators were added to each well 4 times over a 16-17 minute period so that the late component of the Na current reached a stable value. Compounds were then added (typically at 10 μM), in the presence of late INa activator, with 3 additions over the course of 7 or 8 minutes. […]

Sequence of wild-type human cardiac sodium channel, hNav1.5 (late sodium current) (Q14524 whole entry): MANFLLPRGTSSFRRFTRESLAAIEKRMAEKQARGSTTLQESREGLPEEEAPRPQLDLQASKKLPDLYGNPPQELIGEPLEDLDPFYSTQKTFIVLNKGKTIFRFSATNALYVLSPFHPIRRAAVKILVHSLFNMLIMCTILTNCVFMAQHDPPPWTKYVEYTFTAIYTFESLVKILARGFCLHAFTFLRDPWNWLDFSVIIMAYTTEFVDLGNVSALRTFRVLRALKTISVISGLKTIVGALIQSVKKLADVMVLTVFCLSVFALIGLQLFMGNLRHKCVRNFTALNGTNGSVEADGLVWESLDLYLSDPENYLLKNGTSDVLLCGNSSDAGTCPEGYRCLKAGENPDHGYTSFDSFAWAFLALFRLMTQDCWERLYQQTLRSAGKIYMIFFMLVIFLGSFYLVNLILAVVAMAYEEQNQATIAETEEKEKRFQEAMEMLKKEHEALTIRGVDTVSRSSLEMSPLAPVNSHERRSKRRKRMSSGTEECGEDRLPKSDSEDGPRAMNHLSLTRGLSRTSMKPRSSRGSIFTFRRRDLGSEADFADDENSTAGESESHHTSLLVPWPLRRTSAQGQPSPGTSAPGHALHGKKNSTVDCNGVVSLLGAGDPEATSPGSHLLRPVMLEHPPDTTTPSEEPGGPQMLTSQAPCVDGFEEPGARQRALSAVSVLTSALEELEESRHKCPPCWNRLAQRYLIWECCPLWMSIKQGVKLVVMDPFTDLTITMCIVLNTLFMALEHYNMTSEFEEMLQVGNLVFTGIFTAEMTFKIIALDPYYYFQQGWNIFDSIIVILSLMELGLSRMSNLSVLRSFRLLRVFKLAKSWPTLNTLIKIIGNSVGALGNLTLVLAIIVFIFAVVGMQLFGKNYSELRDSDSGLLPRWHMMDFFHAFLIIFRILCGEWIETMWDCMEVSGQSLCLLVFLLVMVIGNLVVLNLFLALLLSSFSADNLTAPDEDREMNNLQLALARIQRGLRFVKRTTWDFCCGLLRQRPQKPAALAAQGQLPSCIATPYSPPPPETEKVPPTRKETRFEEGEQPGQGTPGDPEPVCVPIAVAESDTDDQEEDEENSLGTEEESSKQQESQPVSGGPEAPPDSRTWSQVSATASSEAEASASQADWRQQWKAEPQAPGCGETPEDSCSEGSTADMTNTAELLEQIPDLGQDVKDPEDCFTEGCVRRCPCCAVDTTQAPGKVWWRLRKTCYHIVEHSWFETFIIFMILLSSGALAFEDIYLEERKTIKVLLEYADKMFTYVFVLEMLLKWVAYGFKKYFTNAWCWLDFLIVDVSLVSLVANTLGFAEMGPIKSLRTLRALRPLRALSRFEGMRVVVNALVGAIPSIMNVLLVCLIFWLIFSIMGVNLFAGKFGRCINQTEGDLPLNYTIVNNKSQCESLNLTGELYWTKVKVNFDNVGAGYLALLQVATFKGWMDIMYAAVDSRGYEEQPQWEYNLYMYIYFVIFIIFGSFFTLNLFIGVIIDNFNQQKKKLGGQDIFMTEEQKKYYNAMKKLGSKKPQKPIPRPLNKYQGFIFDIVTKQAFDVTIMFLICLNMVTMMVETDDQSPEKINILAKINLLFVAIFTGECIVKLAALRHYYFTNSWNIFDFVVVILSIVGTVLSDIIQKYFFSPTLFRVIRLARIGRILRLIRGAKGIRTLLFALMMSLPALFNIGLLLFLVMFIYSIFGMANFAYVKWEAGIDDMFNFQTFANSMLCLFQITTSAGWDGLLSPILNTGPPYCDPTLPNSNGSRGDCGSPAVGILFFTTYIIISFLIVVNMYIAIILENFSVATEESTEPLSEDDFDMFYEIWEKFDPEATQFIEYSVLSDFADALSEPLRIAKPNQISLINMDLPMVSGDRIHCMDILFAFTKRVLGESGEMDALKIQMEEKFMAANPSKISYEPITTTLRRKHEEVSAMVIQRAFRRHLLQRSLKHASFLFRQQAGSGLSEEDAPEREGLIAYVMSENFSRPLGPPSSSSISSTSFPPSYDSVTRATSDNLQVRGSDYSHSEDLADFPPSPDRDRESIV

| Compound | inhibition at 10 µM [%] | further results |
| --- | --- | --- |
| O=C(CN1C(=O)CCc2cc(-c3ccc(C(F)(F)F)cc3)ccc21)N1CCOCC1 [Compound 32, 1-[2-(morpholin-4-yl)-2-oxoethyl]-6-[4-(trifluoromethyl)phenyl]-3,4-dihydroquinolin-2(1H)-one] | 27 |  |
| CC(C)(C)OC(=O)CN1C(=O)CCc2cc(-c3ccc(F)cc3)ccc21 [Compound 33, tert-butyl [6-(4-fluorophenyl)-2-oxo-3,4-dihydroquinolin-1(2H)-yl]acetate] | 77 | Late INa % blk (1 μM test cmpd) (1 μM test compound): 38.1% |
| CC(C)(C)c1nc(CN2C(=O)CCc3cc(-c4ccc(F)cc4)ccc32)no1 [Compound 35, 1-[(5-tert-butyl-1,2,4-oxadiazol-3-yl)methyl]-6-(4-fluorophenyl)-3,4-dihydroquinolin-2(1H)-one] | 69 |  |
| O=C1CCc2cc(-c3ccc(OC(F)(F)F)cc3)ccc2N1Cc1cccnc1 [Compound 37, 1-(pyridin-3-ylmethyl)-6-[4-(trifluoromethoxy)phenyl]-3,4-dihydroquinolin-2(1H)-one] | 19 |  |
| O=C1CCc2cc(-c3ccc(Oc4ccccc4)cc3)ccc2N1 [Compound 38, 6-(4-phenoxyphenyl)-3,4-dihydroquinolin-2(1H)-one] | 53 |  |
| CC(C)(C)OC(=O)CN1C(=O)CCc2cc(-c3ccc(Cl)cc3)ccc21 [Compound 40, tert-butyl [6-(4-chlorophenyl)-2-oxo-3,4-dihydroquinolin-1(2H)-yl]acetate] | 64 |  |
| N#Cc1cccc(-c2ccc3c(c2)CCC(=O)N3)c1 [Compound 41, 3-(2-oxo-1,2,3,4-tetrahydroquinolin-6-yl)benzonitrile] | 12 |  |
| CC1(C)CC(=O)Nc2ccc(-c3ccc(C(F)(F)F)cc3)cc21 [Compound 42, 4,4-dimethyl-6-[4-(trifluoromethyl)phenyl]-3,4-dihydroquinolin-2(1H)-one] | 19 |  |
| CC(C)(C)OC(=O)CN1C(=O)CCc2cc(-c3ccc(C(F)(F)F)cc3)ccc21 [Compound 45, tert-butyl {2-oxo-6-[4-(trifluoromethyl)phenyl]-3,4-dihydroquinolin-1(2H)-yl}acetate] |  | Late INa % blk (10 μM test cmpd) (10 μM test compound): 64% |
| CC(C)(C)OC(=O)CN1C(=O)CCc2cc(-c3ccc(OC(F)(F)F)cc3)ccc21 [Compound 50, tert-butyl {2-oxo-6-[4-(trifluoromethoxy)phenyl]-3,4-dihydroquinolin-1(2H)-yl}acetate] | 76 |  |
| O=C(O)CN1C(=O)CCc2cc(-c3ccc(OC(F)(F)F)cc3)ccc21 [Compound 51, {2-oxo-6-[4-(trifluoromethoxy)phenyl]-3,4-dihydroquinolin-1(2H)-yl}acetic acid] | 14 |  |
| CC(C)(C)OC(=O)CN1C(=O)CCc2cc(-c3cccc(Cl)c3)ccc21 [Compound 53, tert-butyl [6-(3-chlorophenyl)-2-oxo-3,4-dihydroquinolin-1(2H)-yl]acetate] | 73 |  |
| CCOC(=O)CN1C(=O)CCc2cc(-c3ccc(C(F)(F)F)cc3)ccc21 [Compound 54, ethyl {2-oxo-6-[4-(trifluoromethyl)phenyl]-3,4-dihydroquinolin-1(2H)-yl}acetate] | 13 |  |
| NC(=O)CN1C(=O)CCc2cc(-c3ccc(F)cc3F)ccc21 [Compound 55, 2-[6-(2,4-difluorophenyl)-2-oxo-3,4-dihydroquinolin-1(2H)-yl]acetamide] | 14 |  |
| NC(=O)CN1C(=O)CCc2cc(-c3ccc(C(F)(F)F)cc3)ccc21 [Compound 56, 2-{2-oxo-6-[4-(trifluoromethyl)phenyl]-3,4-dihydroquinolin-1(2H)-yl}acetamide] | 14 |  |
| O=C(O)CN1C(=O)CCc2cc(-c3cccc(F)c3)ccc21 [Compound 59, [6-(3-fluorophenyl)-2-oxo-3,4-dihydroquinolin-1(2H)-yl]acetic acid] | 10 |  |
| CC(C)(C)OC(=O)CN1C(=O)CCc2cc(-c3ccc(Oc4ccccc4)cc3)ccc21 [Compound 66, tert-butyl [2-oxo-6-(4-phenoxyphenyl)-3,4-dihydroquinolin-1(2H)-yl]acetate] | 27 |  |
| CC(C)(C)OC(=O)CN1C(=O)CCc2cc(-c3ccc(Cl)c(C(F)(F)F)c3)ccc21 [Compound 67, tert-butyl {6-[4-chloro-3-(trifluoromethyl)phenyl]-2-oxo-3,4-dihydroquinolin-1(2H)-yl}acetate] | 74 |  |
| O=C(O)CN1C(=O)CCc2cc(-c3ccc(Cl)cc3)ccc21 [Compound 68, [6-(4-chlorophenyl)-2-oxo-3,4-dihydroquinolin-1(2H)-yl]acetic acid] | 23 |  |
| O=C(O)CN1C(=O)CCc2cc(-c3ccc(C(F)(F)F)c(F)c3)ccc21 [Compound 74, 2-(6-(3-fluoro-4-(trifluoromethyl)phenyl)-2-oxo-3,4-dihydroquinolin-1(2H)-yl)acetic acid] | 20 |  |
| COc1cc2c(cc1-c1ccc(Cl)cc1)CCC(=O)N2 [Compound 77, 6-(4-chlorophenyl)-7-methoxy-3,4-dihydroquinolin-2(1H)-one] | 72 |  |
| COc1c(-c2ccc(Cl)cc2)cc2c(c1Br)NC(=O)CC2 [Compound 78, 8-bromo-6-(4-chlorophenyl)-7-methoxy-3,4-dihydroquinolin-2(1H)-one] | 34 |  |
| COc1cc2c(cc1-c1ccc(C(F)(F)F)cc1)CCC(=O)N2CC(=O)O [Compound 79, 2-(7-methoxy-2-oxo-6-(4-(trifluoromethyl)phenyl)-3,4-dihydroquinolin-1(2H)-yl)acetic acid] | 12 |  |
| COc1cc2c(cc1-c1ccc(Cl)cc1)CCC(=O)N2CC(=O)O [Compound 80, 2-(6-(4-chlorophenyl)-7-methoxy-2-oxo-3,4-dihydroquinolin-1(2H)-yl)acetic acid] | 17 |  |
| COc1c(-c2ccc(Cl)cc2)cc2c(c1-c1ccc(Cl)cc1)N(CC(=O)O)C(=O)CC2 [Compound 81, 2-(6,8-bis(4-chlorophenyl)-7-methoxy-2-oxo-3,4-dihydroquinolin-1(2H)-yl)acetic acid] | 30 |  |
| COc1cc2c(cc1-c1ccc(C(F)(F)F)c(F)c1)CCC(=O)N2 [Compound 82, 6-(3-fluoro-4-(trifluoromethyl)phenyl)-7-methoxy-3,4-dihydroquinolin-2(1H)-one] | 54 |  |
| O=C(O)c1ccc(CN2C(=O)CCc3cc(-c4ccc(C(F)(F)F)cc4)ccc32)cc1 [Compound 86, 4-((2-oxo-6-(4-(trifluoromethyl)phenyl)-3,4-dihydroquinolin-1(2H)-yl)methyl)benzoic acid] | 13 |  |
| COC(=O)c1ccc(CN2C(=O)CCc3cc(-c4ccc(C(F)(F)F)cc4)ccc32)cc1 [Compound 87, methyl 4-((2-oxo-6-(4-(trifluoromethyl)phenyl)-3,4-dihydroquinolin-1(2H)-yl)methyl)benzoate] | 20 |  |
| COc1ccccc1OCC(O)CN1C(=O)CCc2cc(-c3ccc(F)cc3F)ccc21 (stereo not drawn) [Compound 88, 6-(2,4-difluorophenyl)-1-(2-hydroxy-3-(2-methoxyphenoxy)propyl)-3,4-dihydroquinolin-2(1H)-one] | 40 |  |

— patent publication US8664379B2, “Fused heterocyclic compounds as ion channel modulators” (Gilead Sciences, Inc., priority 2008, dated 2014)
